Measurements published in ChEMBL document CHEMBL1148945, “Isolation of cytochrome P450 inhibitors from strawberry fruit, Fragaria ananassa” (J Nat Prod, 2004).

target: Cytochrome P450 3A4 (Homo sapiens, UniProt P08684); assay: Inhibition of human CYP3A4; type: ADME
Sequence (P08684 whole entry): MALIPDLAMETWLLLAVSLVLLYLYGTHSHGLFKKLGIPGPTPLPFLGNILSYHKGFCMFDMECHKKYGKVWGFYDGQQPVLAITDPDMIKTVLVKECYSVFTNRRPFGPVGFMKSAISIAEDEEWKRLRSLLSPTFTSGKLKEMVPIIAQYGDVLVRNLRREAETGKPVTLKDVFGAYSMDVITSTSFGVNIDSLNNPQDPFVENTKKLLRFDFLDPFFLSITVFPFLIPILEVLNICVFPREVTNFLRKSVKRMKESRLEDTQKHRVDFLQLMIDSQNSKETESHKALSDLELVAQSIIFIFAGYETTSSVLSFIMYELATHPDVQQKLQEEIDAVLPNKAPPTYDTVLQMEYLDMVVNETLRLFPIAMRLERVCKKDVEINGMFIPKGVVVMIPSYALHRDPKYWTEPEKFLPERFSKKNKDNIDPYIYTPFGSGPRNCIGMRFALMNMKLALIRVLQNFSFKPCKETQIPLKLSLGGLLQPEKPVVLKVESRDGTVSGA

IC50 [nM] | Compound
120000 | CC(C)CC(=O)c1c(O)cc(O)cc1O[C@@H]1O[C@H](CO)[C@@H](O)[C@H](O)[C@H]1O
700 | O=C(/C=C\c1ccc(O)cc1)OC[C@H]1O[C@@H](Oc2c(-c3ccc(O)cc3)oc3cc(O)cc(O)c3c2=O)[C@H](O)[C@@H](O)[C@@H]1O
700 | O=C(/C=C/c1ccc(O)cc1)OC[C@H]1O[C@@H](Oc2c(-c3ccc(O)cc3)oc3cc(O)cc(O)c3c2=O)[C@H](O)[C@@H](O)[C@@H]1O [TILIROSIDE]
